Experimental data from patent US20070275936A1, “Formulations and Treatment Methods” (priority 1998, published 2007).
Where two headings read alike, the source gives them in different places.

Key:
[1] = test system: P. berghei HP15 ANKA; assay: Four-day in vivo suppressive test in TO mice; design: species or system Plasmodium berghei; details: day 5 blood films, 5 equals control
Experimental: The 4-day suppressive test has been widely used and it can be performed within a 1 week period. The test consists of the inoculation of parasitised erythrocytes on the first day of the experiment (D0), followed by an injection of the test compound, which is also administered on the 2nd, 3rd and 4th days of the protocol. On the 5th day, blood films are taken and antimalarial activity is assessed either by calculating parasitemia, or by scoring parasite numbers on a predetermined scale (i.e., 1-5).
The protocol is summarized as follows. Five female TO mice were used per test group. P. berghei HP15 ANKA parasites were collected by cardiac puncture using a heparinised syringe from a donor mouse having a 30+% parasitaemia. The blood was diluted with diluting agent (50% HIFCS+50% sterile PBS) to a final concentration of 1% parasitaemia or 1×10^7 infected erythrocytes per 0.2 mL of the infecting suspension. […] The steroid formulations were administered intraperitoneally 2 hours after parasite inoculation. The compounds were administered once a day starting on Do, and continued on the following three days. Blood films were made from tail blood on the day after the last dosing of compound and the blood was fixed with 100% methanol and stained with 10% Giemsa. Parasitaemias were scored on a scale of 0-5, where 5 is equal to the control.
An inoculum of 1% parasitaemia […], 0.2 mL per mouse (female strain TO mice), was delivered by intravenous injection. Drug administration commenced 2 hours after inoculation on Day 1 and continued for 3 days.

[2] = test system: Wistar rats; assay: DNBS induced distal colitis in rats; assay type: in vivo; details: for animals with moderate acute inflammation: 5 of 10 in immunosteroid vehicle controls; for animals with severe chronic inflammation: 14 days after DNBS challenge, 8 of 10 in immunosteroid vehicle controls; for adhesions / colonic ulceration / diarrhea: DNBS rats; for adhesions / colonic ulceration: first study, groups of 3; for diarrhea: 7-oxodehydroepiandrosterone 2 and 20 mg/mL s.c., sulfasalazine PO, AET 20 mg/kg
Experimental: Groups of 3 male Wistar rats (180±20 grams) fasted for 24 hours before 2,4-dinitrobenzene sulfonic acid (DNBS) or saline challenge were used. Distal colitis was induced by intra-colonic instillation of 0.5 mL of an ethanolic solution of DNBS (30 mg in 0.5 mL of a 30% ethanol in saline solution) after which 2 mL of air was injected through the cannula to ensure that the solution remained in the colon. The volume used was 0.1 mL per injection of 2 and 20 mg/mL of 7-oxodehydroepiandrosterone in a liquid formulation, was administered by subcutaneous injection once a day for 6 days. The formulation contained […] of 7-oxodehydroepiandrosterone in a non-aqueous suspension that contained 2% benzyl alcohol w/v, 0.1% Brij 96 w/v and equal volumes of PEG 300 and propylene glycol. Concentrations of 2 mg/mL and 20 mg/mL were obtained by diluting the […] with vehicle that lacked the active substance.
The first dose was given 30 minutes after DNBS challenge. Sulfasalazine (30 mg/mL in 2% Tween 80 in distilled water) was administered orally (PO) once a day (10 mL/kg/day) for 7 days, the first two doses beginning 24 hours and 2 hours before DNBS challenge. The presence of diarrhea was recorded daily by examining the anal area. Animals were fasted for 24 hours prior to being sacrificed. Animals were sacrificed on day 7 or day 8 and their colons were removed and weighed. Before removal of the colon, signs of adhesion between the colon and other organs were recorded. Also, the presence of ulcerations was noted after weighing of each colon. The “net” change of colon-to-body weight (BW) ratio was normalized relative to saline-challenged baseline group. A 30% decrease in “net” colon-to-body weight ratio was considered significant.
A total of five studies were conducted. Data from the first study are reported in this report. The 7-oxodehydroepiandrosterone at 2 and 20 mg/mL, decreased the net colon-to-body weight ratio by 19 and by 14% relative to vehicle-treated group, respectively. […] The formula 1 compound 3β,7β,17β-trihydroxyandrost-5-ene (AET) was administered by subcutaneous injections of 2 and 20 mg/day for 5 or 6 days, with the first dose injected 30 minutes post-DNBS challenge. The AET formulation was the same as the 7-oxodehydroepiandrosterone formulation, except that AET replaced 7-oxodehydroepiandrosterone. AET decreased the net colon-to-body weight ratio by 15% and 21% relative to controls (see the table below). Animals treated with AET (20 mg/kg) had no diarrhea. […] The same formulations containing BrEA hemihydrate (100 mg/mL) or dehydroepiandrosterone (20 mg/mL) decreased the net colon-to-body weight ratio by 21 and 3%, respectively relative to controls.

[3] = test system: Chloroquine sensitive T996/86 P. falciparum; assay: In vitro antimalarial testing (schizont inhibition / 3H-hypoxanthine incorporation); assay type: cell-based
Experimental: For in vitro antimalarial testing, micro-titer plates were used. The concentration of drugs were prepared as pMol/well according to WHO standard procedures (WHO, 1990). The test compound was dissolved in 15% DMSO in sterile RPMI-1640. Both chloroquine sensitive (e.g., WS/97) and resistant (e.g., MN/97) isolates of Plasmodium species are used.
A schizont inhibition assay was performed as follows. The micro-titer plates were predosed with various concentrations of the test compound. 50 μL of parasitised erythrocyte suspension in RPMI-1640 (0.2 mL erythrocyte+0.3 mL serum+4-5 ml RPMI-1640) were dispensed in microtiter wells that contained various concentrations of drug. Triplicate readings were made for each concentration.
A ^3H-hypoxanthine incorporation assay was performed as follows. The testing was carried out according to the procedure of Desjardins et al. 1979. After 30 hr culture at 37 degrees C., the same microtiter plates from schizont inhibition assays with another triplicate wells were pulsed with ^3H-hypoxanthine for overnight. The cell suspensions were washed twice on millipore glass fiber filter with Millipore filter apparatus. The filter discs were counted for DPM by a Beckman LS6000 β-scintillation counter. The activity of the drug was measured by plotting DPM against concentration of drug.

[4] = test system: Sprague Dawley rats; assay: TNBS induced distal colitis in rats; assay type: in vivo; details: day 14
Experimental: In another protocol formula 1 compounds were used in a similar animal model. Groups of 10 male Sprague Dawley rats (250-300 grams) were fasted for 24 hours before 2,4,6-trinitrobenzene sulfonic acid (TNBS) or saline challenge. This model presents a severe challenge to the animal's immune system. On Day 0, the rats were lightly anesthetized and a catheter inserted rectally into the colon such that the tip was 8 cm proximal to the anus. Distal colitis was induced by intra-colonic instillation of 0.5 mL of an ethanolic solution of TNBS (60 mg/mL ethanol 50% in water). The test substance, 7-oxodehydroepiandrosterone 20 mg/mL in vehicle or vehicle control was administered by subcutaneous injection (0.1 mL/injection) once a day for 6 days, the first dose being given 30 minutes after TNBS challenge. Sulfasalazine (30 mg/mL in 2% Tween 80 in distilled water) or vehicle control was administered orally (PO) once a day (10 mL/kg/day) for 7 days, the first two doses beginning 24 hours and 2 hours before […] challenge. Signs of diarrhea were recorded daily by examining the anal area. Animals were fasted for 24 hours prior to sacrifice on day 14 and the colon was removed and weighed. After gross observations of colonic tissues, 3 samples were taken from regions approximately 1, 3, and 8 cm proximal to the anus. If gross ulcers or inflammation were present, at least one sample was taken from the affected region. Before removal of the colon, signs of adhesion between the colon and other organs were recorded. […] Body weight, colon-to-body-weight ratio, and damage scores were assessed. Visible damage was scored on a 1-5 scale as follows: 0=No damage; 1=Localized hyperemia but no ulcers; 2=linear ulcers with no significant inflammation; 3=Linear ulcers with inflammation at one site; 4=Two or more sites of ulceration and/or inflammation; 5=Two or more major sites of ulceration and inflammation or one major site of ulceration and inflammation extending more than 1 cm along the length of the colon. […]

[5] = test system: BALB/c mice; assay: Reversal of immunosenescence: HBsAg vaccination of aged mice; assay type: in vivo; details: for mice producing anti-HBsAg in response to secondary vaccination: groups of 8, 0.3 mg/mouse at primary vaccination; for mice with increased anti-HBsAg antibody titer following secondary vaccination: groups of 8, 3 mg/mouse at primary vaccination
Experimental: Healthy aged (20-month) or immunologically-mature (3-month) BALB/c mice were vaccinated with hepatitis B surface antigen (HBsAg) (2 μg; Recombivax-HB; Merck) and Alum (2.75 μg). The aged mice were vaccinated with the antigen and also received a single subcutaneous injection of either 0.3 mg or 3.0 mg of 3β,7β,17β-trihydroxyandrost-5-ene (AET), BrEA or 7-oxodehydroepiandrosterone, dehydroepiandrosterone or the vehicle (placebo control). The AET, BrEA hemihydrate or dehydroepiandrosterone was present in a formulation that contained 60 mg/mL of the compound suspended in 0.1% w/v carboxymethyl cellulose sodium in 0.9% saline. 7-Oxodehydroepiandrosterone was in a formulation that contained 60 mg/mL of the compound suspended in 0.1% w/v gum arabic in 0.9% saline. A concentration of 6 mg/mL was obtained by diluting the 60 mg/mL formulation with vehicle that lacked the active substance.
Blood samples were collected 14, 21 and 34 days after treatment and the sera were analyzed by ELISA to determine the concentration of HBsAg-specific IgG (total IgG). In addition, samples obtained on day 21 were analyzed to determine the concentration of HBsAg-specific IgG1 and IgG2a subclasses. The results summarized below were average values obtained with blood samples collected 21 days after vaccination of groups of 8 mice. Subcutaneous injection was performed after shaving the hair from the thighs of each mouse. The injected volume was 50 μL for compound (3.0 mg or 0.3 mg) or placebo, and for vaccine preparation. The vehicle control consisted of carboxymethylcellulose (0.5%) in saline (0.9%). Antibody titers were determined by ELISA.
Secondary antibody response. Later, 42 days after the initial exposure to HBsAg, serum samples were taken from the mice described in the previous section and these were tested for anti-HBsAg IgG. At this time-point, vaccine-specific IgG titers were either low or undetectable. Three days later (45 days after first vaccination), the mice were injected again with HBsAg in Alum, but this time, none of the mice received immunosteroid (secondary vaccination). Serum samples collected 7 days and 14 days after the second exposure to HBsAg vaccine were assayed for anti-HBsAg antibody. […] In contrast, in aged mice that had received no immunosteroid with the first HBsAg injection, low levels of anti-HBsAg were detectable, and only in 4 of the 8 mice in this group was antibody detectable. Increases in anti-HBsAg titers were seen following secondary vaccination in aged animals that had been treated with immunosteroid in conjunction with the first HBsAg exposure. The anti-HBsAg antibody titer in serum increased following secondary vaccination in all 8 mice in the groups of aged mice that were treated at primary vaccination with the higher dose (3 mg/mouse) of AET, BrEA or 7-oxodehydroepiandrosterone, or with dehydroepiandrosterone (0.3 mg/mouse). In those aged mice that had received the lower dose (0.3 mg/mouse) of AET, BrEA or 7-oxodehydroepiandrosterone at vaccination, an intermediate response was seen, with 6 of the 8 mice producing detectable anti-HBsAg in response to secondary vaccination.

[6] = test system: Plasmodium berghei; assay: Lewis rat in vivo parasitemia study; details: Lewis rats, chloroquine 40 mg/kg i.v. days 0-3
[7] = T996/86 P. falciparum in vitro, read-out: IC50

Compound: Etienic Acid
- Parasitaemia Score (0-5) ([1]; 100 mg/kg × 4 days i.p.): 2

Compound: O=C(O)c1cc(/N=N/c2ccc(S(=O)(=O)Nc3ccccn3)cc2)ccc1O [Sulfasalazine]
- animals with severe acute inflammation ([2]; 7 days after DNBS challenge, 3 of 10 in immunosteroid vehicle controls): 3 animals
- animals with moderate acute inflammation ([2]; 7 days after DNBS challenge): 6 animals
- animals with severe chronic inflammation [2]: 2 animals
- adhesions [2]: no animals exhibited adhesions or colonic ulceration
- colonic ulceration [2]: no animals exhibited adhesions or colonic ulceration
- diarrhea [2]: all animals treated with Sulfazalazine had diarrhea

Compound: Etienic Acid Methyl Ester
- % inhibition ([3]; 0.938 μM): 43.3%
- % inhibition ([3]; 1.875 μM): 41%
- % inhibition ([3]; 3.25 μM): 46%
- % inhibition ([3]; 7.5 μM): 40.9%
- % inhibition ([3]; 15 μM): 45.7%
- % inhibition ([3]; 30 μM): 60%
- IC50 [3, 7]: 19.5 µM

Compound: C[C@]12CC[C@H](O)CC1=CC(=O)[C@@H]1[C@@H]2CC[C@]2(C)C(=O)CC[C@@H]12 [7-oxodehydroepiandrosterone]
- histopathology: inflammation / lesion frequency and severity versus controls [4]: exacerbated the inflammation
- mice producing anti-HBsAg in response to secondary vaccination [5]: 6 mice
- mice with increased anti-HBsAg antibody titer following secondary vaccination [5]: 8 mice
- adhesions [2]: Adhesions were absent in all three tested animals
- colonic ulceration [2]: 1/3
- diarrhea [2]: All animals had diarrhea

Compound: C[C@]12CC[C@H]3[C@@H]([C@@H](O)C=C4C[C@@H](O)CC[C@@]43C)[C@@H]1CC[C@@H]2O [AET, 3β,7β,17β-trihydroxyandrost-5-ene]
- mice producing anti-HBsAg in response to secondary vaccination [5]: 6 mice
- mice with increased anti-HBsAg antibody titer following secondary vaccination [5]: 8 mice
- animals with moderate acute inflammation ([2]; 7 days after DNBS challenge): 6 animals
- animals with severe chronic inflammation [2]: 3 animals
- animals with ulcers ([2]; 14 days after challenge, treatment began the same day as challenge): 1 animal
- adhesions [2]: Adhesion was absent
- diarrhea [2]: no diarrhea

Compound: CCN(CC)CCCC(C)Nc1ccnc2cc(Cl)ccc12 (centres unmarked) [Chloroquine, reference compound]
- IC50 ([3]; Plasmodium falciparum, T996): 0.009 µM
- inhibition at 0.00625 µM ([3]; Plasmodium falciparum, T996): 27.2%
- inhibition at 0.0125 µM ([3]; Plasmodium falciparum, T996): 86.8%
- inhibition at 0.025 µM ([3]; Plasmodium falciparum, T996): 94.5%
- inhibition at 0.05 µM ([3]; Plasmodium falciparum, T996): 97.3%
- inhibition at 0.1 µM ([3]; Plasmodium falciparum, T996): 94.6%
- inhibition at 0.2 µM ([3]; Plasmodium falciparum, T996): 95.9%
- Parasitaemia Score (0-5) ([1]; 3 mg/kg × 4 days i.p.): 1
- % RBC parasitemia ([6]; Day 4, saline control 16%): 10%
- % RBC parasitemia ([6]; Day 11, saline control 36%): 16%

Compound: Etianic Acid Methyl Ester
- % inhibition ([3]; 0.938 μM): 47.1%
- % inhibition ([3]; 1.875 μM): 43.4%
- % inhibition ([3]; 3.25 μM): 41.4%
- % inhibition ([3]; 7.5 μM): 45.3%
- % inhibition ([3]; 15 μM): 47.4%
- % inhibition ([3]; 30 μM): 61.5%
- IC50 [3, 7]: 17.5 µM
